Test results reported in ChEMBL document CHEMBL5584242, “Discovery of pyridazinone derivatives bearing tetrahydroimidazo[1,2-a]pyrazine scaffold as potent inhibitors of transient receptor potential canonical 5 to ameliorate hypertension-induced renal injury in rats” (Eur J Med Chem, 2024).

Columns and labels:
in vitro [1] = conditions: human, liver microsomes, F
in vitro [2] = conditions: mouse, liver microsomes, F
in vitro [3] = conditions: rat, liver microsomes
in vitro [4] = conditions: rat, liver microsomes, F
in vitro [5] = conditions: human, liver microsomes
[6] = mouse, microsomes
in vitro [7] = conditions: mouse, liver microsomes
[8] = human, microsomes
[9] = rat, microsomes
[10] = Drug distribution in ICR mouse brain at 10 mg/kg, po measured after 1 hr by LC-MS/MS analysis; assay type: ADME, organism-based; conditions: in vivo
[11] = Half-life in ICR mouse at 10 mg/kg, po measured upto 24 hrs by LC-MS/MS analysis; assay type: ADME, organism-based; conditions: in vivo
[12] = Drug distribution in ICR mouse spleen at 10 mg/kg, po measured after 1 hr by LC-MS/MS analysis; assay type: ADME, organism-based; conditions: in vivo
[13] = Drug distribution in ICR mouse lung at 10 mg/kg, po measured after 1 hr by LC-MS/MS analysis; assay type: ADME, organism-based; conditions: in vivo
[14] = Drug distribution in ICR mouse heart at 10 mg/kg, po measured after 1 hr by LC-MS/MS analysis; assay type: ADME, organism-based; conditions: in vivo
[15] = Drug distribution in ICR mouse kidney at 10 mg/kg, po measured after 1 hr by LC-MS/MS analysis; assay type: ADME, organism-based; conditions: in vivo
[16] = Tmax in ICR mouse at 10 mg/kg, po measured upto 24 hrs by LC-MS/MS analysis; assay type: ADME, organism-based; conditions: in vivo
[17] = Drug distribution in ICR mouse colon at 10 mg/kg, po measured after 1 hr by LC-MS/MS analysis; assay type: ADME, organism-based; conditions: in vivo
[18] = Cmax in ICR mouse at 10 mg/kg, po measured upto 24 hrs by LC-MS/MS analysis; assay type: ADME, organism-based; conditions: in vivo
[19] = Drug distribution in ICR mouse liver at 10 mg/kg, po measured after 1 hr by LC-MS/MS analysis; assay type: ADME, organism-based; conditions: in vivo
[20] = human, microsomes; remark: listed apart in the source
[21] = mouse, microsomes; remark: listed apart in the source
[22] = rat, microsomes; remark: listed apart in the source

COC(c1ccc(F)cc1C(F)(F)F)c1cnc2n1CCN(c1cn[nH]c(=O)c1Cl)C2 (centres undefined)
Fh (in vitro [1]): 27.9% | Fh (in vitro [2]): 45% | half-life (in vitro [3]): 34.7 min | Fh (in vitro [4]): 42.3% | half-life (in vitro [5]): 41.5 min | CLH [6]: 54.2 mL/min/g | half-life (in vitro [7]): 38.7 min | CLH [8]: 50.6 mL/min/g | CLH [9]: 60.5 mL/min/g

COC(c1ccc(F)cc1Cl)c1cnc2n1CCN(c1cn[nH]c(=O)c1Cl)C2 (stereo in doubt; 12)
Fh (in vitro [1]): 52.5% | Fh (in vitro [2]): 49.7% | Drug uptake [10]: Not Active | half-life [11]: 118 min | Drug uptake [12]: Active | half-life (in vitro [3]; t1/2): 21.6 min | Fh (in vitro [4]): 31.4% | Drug uptake [13]: Active | Drug uptake [14]: Active | half-life (in vitro [5]; t1/2): 119 min | Drug uptake [15]: Active | Tmax [16]: 60 min | Drug uptake [17]: Active | CLH [6]: 45 mL/min/g | half-life (in vitro [7]; t1/2): 46.7 min | CLH [8]: 17.7 mL/min/g | Cmax [18]: 1150 ng/mL | CLH [9]: 97.3 mL/min/g | Drug uptake [19]: Active

COC(c1ccc(F)cc1Cl)c1cnc2n1CCN(c1cn[nH]c(=O)c1Cl)C2 (stereo in doubt; 12-2)
t1/2 [20]: 120 min | t1/2 [21]: 50.3 min | CLH [6]: 41.8 mL/min/g | t1/2 [22]: 14.8 min | CLH [8]: 17.5 mL/min/g | CLH [9]: 142 mL/min/g
